From PubChem BioAssay AID2060513 (Molecular Pharmacology Branch, DTP, NCI, 2025)
Where “and” joins values, the source holds several entries; their conditions need not be identical. Equal values may be shown once. Each block holds one molecule with its values, some of them ahead of it.

Tested on: 299254-011-R-J1-PDC complex spheroids viability
Assay: Anticancer human tumor 299254-011-R-J1-PDC patient-derived melanoma cell line growth inhibition [GQUAD]
Conditions: for viability, T/C: stronger effect = lower value
Excerpt: DNA G-quadruplex Stabilizer Agents in Combinations in Complex Spheroids
A high-throughput screen of multi-cell type tumor spheroids was designed to identify active combinations of DNA G-quadruplex stabilizer agents and targeted small molecules. Complex spheroids include a stromal component modeled by human endothelial cells (HUVEC) and fibroblasts modeled by human mesenchymal stem cells (MSCs). The concentration ranges selected for each drug and investigational agent were based upon clinically achievable concentrations if the clinical Cmax of the agent was known.
Compounds. The drugs and investigational agents: pidnarulex (CX-5461; NSC782164), APTO-253 (NSC789042), BRACO-19 (NSC847499), peposertib (NSC802822), ceralasertib (NSC780249), elimusertib (NSC800525), camonsertib (NSC841442), AZD-1390 (NSC803789), olaparib (NSC753686), talazoparib (NSC767125), ART-558 (NSC835418), sotorasib (NSC818433), MRTX-1133 (NSC836407), SN-38 (NSC673596), topotecan (NSC609699), etoposide (NSC141540), doxorubicin (NSC123127), gemcitabine (NSC613327), 5-fluorouracil (NSC19893), paclitaxel (NSC125973), vemurafenib (NSC761431), panobinostat (NSC761190), R-306465 (JNJ-16241199; NSC773264), adavosertib (NSC754352), TP-3654 (NSC805149), carboplatin (NSC241240), KSQ-4279 (NSC840948), and staurosporine (NSC755774) were obtained from the National Cancer Institute (NCI) Developmental Therapeutics Program Chemical Repository (34). The FDA-approved anticancer drug set is available from the NCI Developmental Therapeutics Program. […] The stock solutions were prepared in dimethyl sulfoxide (DMSO, Sigma-Aldrich, St. Louis, MO, cat. D2650) at 800-fold the tested concentration and stored at -70 degrees C prior to their use. All drugs and investigational agents were tested over a range starting from a high concentration at or near the clinical Cmax and decreasing in half-log increments. If the clinical Cmax for an agent had not been determined, the highest concentration tested was 10 microM.
2.3 Cell Culture. All cells were maintained in an incubator at 37 degrees C and 5% CO2 with 95% humidity. The PDC lines were cultured according to standard operating procedures established by the NCI PDMR. All PDCs were thawed and cultured in Matrigel-coated flasks prepared with a working solution of 1X Ham's F-12 nutrient mix, without supplementation (Invitrogen, cat. 11765054), 100 U/mL penicillin-streptomycin (Invitrogen, cat. 15140122), and 2.5% Matrigel (Corning Inc., cat. 354248) for the first three passages. The 857933-349-R-J2-PDC line was cultured in 6C/Colon 1B media, which includes advanced DMEM/F-12 (Thermo Fisher Scientific, cat. 12634028), 10 mM HEPES (Thermo Fisher Scientific, cat. 15630080), 1X GlutaMAX supplement (Thermo Fisher Scientific, cat. 35050061), 0.1 mg/mL primocin (InvivoGen, cat. ant-pm-2), 10% defined fetal bovine serum, heat inactivated (HyClone Laboratories Inc., cat. SH30070.03HI), 50% L-WRN conditioned media (ATCC, cat. CRL-3276), 1.25 mM N-Acetyl-L-cysteine (Sigma-Aldrich, cat. A9165), 10 mM nicotinamide (Sigma-Aldrich, cat. N0636), 1X B-27 supplement (Thermo Fisher Scientific, cat. 17504044), 1X N-2 supplement (Thermo Fisher Scientific, cat. 17502048), 10 microM Y-27632 dihydrochloride (Tocris Bioscience, cat. 1254), and 50 ng/mL human EGF recombinant protein (Thermo Fisher Scientific, cat. PHG0311). The 485176-168-R4-J1-PDC line was cultured in Panc media, which includes all 6C/Colon 1B media components plus 100 ng/mL human FGF-10 (Thermo Fisher Scientific, cat. 100-26), 500 nM SB-431542 (Selleckchem, cat. S1067), and gastrin (Tocris, cat. 3006).
[…]

[1] = curve of first compound, second compound 0.0316 µM
[2] = curve of first compound, second compound 0.1 µM
[3] = curve of first compound, second compound 0.316 µM
[4] = curve of first compound, second compound 1 µM
[5] = curve of first compound, second compound 3.16 µM
[6] = curve of first compound, second compound 10 µM
[7] = second compound 0.0316 µM, first compound 0.0316 µM
[8] = second compound 0.0316 µM, first compound 0.1 µM
[9] = second compound 0.0316 µM, first compound 0.316 µM
[10] = second compound 0.0316 µM, first compound 1 µM
[11] = second compound 0.0316 µM, first compound 3.16 µM
[12] = second compound 0.0316 µM, first compound 10 µM
[13] = second compound 0.1 µM, first compound 0.0316 µM
[14] = second compound 0.1 µM, first compound 0.1 µM
[15] = second compound 0.1 µM, first compound 0.316 µM
[16] = second compound 0.1 µM, first compound 1 µM
[17] = second compound 0.1 µM, first compound 3.16 µM
[18] = second compound 0.1 µM, first compound 10 µM
[19] = second compound 0.316 µM, first compound 0.0316 µM
[20] = second compound 0.316 µM, first compound 0.1 µM
[21] = second compound 0.316 µM, first compound 0.316 µM
[22] = second compound 0.316 µM, first compound 1 µM
[23] = second compound 0.316 µM, first compound 3.16 µM
[24] = second compound 0.316 µM, first compound 10 µM
[25] = second compound 1 µM, first compound 0.0316 µM
[26] = second compound 1 µM, first compound 0.1 µM
[27] = second compound 1 µM, first compound 0.316 µM
[28] = second compound 1 µM, first compound 1 µM
[29] = second compound 1 µM, first compound 3.16 µM
[30] = second compound 1 µM, first compound 10 µM
[31] = second compound 3.16 µM, first compound 0.0316 µM
[32] = second compound 3.16 µM, first compound 0.1 µM
[33] = second compound 3.16 µM, first compound 0.316 µM
[34] = second compound 3.16 µM, first compound 1 µM
[35] = second compound 3.16 µM, first compound 3.16 µM
[36] = second compound 3.16 µM, first compound 10 µM
[37] = second compound 10 µM, first compound 0.0316 µM
[38] = second compound 10 µM, first compound 0.1 µM
[39] = second compound 10 µM, first compound 0.316 µM
[40] = second compound 10 µM, first compound 1 µM
[41] = second compound 10 µM, first compound 3.16 µM
[42] = second compound 10 µM, first compound 10 µM
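Note: spheroids exposed to the agents for seven days before readout.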
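Throughout, for viability, T/C: percent viability relative to DMSO vehicle control wells = 100%.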

SMILES: O=C(NO)c1cnc(N2CCN(S(=O)(=O)c3ccc4ccccc4c3)CC2)nc1 + CN(C)c1ccc(Nc2c3ccc(NC(=O)CCN4CCCC4)cc3nc3cc(NC(=O)CCN4CCCC4)ccc23)cc1
IC50 [1]: 0.412 µM | IC50 [2]: 0.447 µM | IC50 [3]: 0.415 µM | IC50 [4]: 0.519 µM | IC50 [5]: 0.512 µM | IC50 [6]: 0.448 µM | viability, T/C [7]: 111% | viability, T/C [8]: 90% | viability, T/C [9]: 65.2% | viability, T/C [10]: 3.37% | viability, T/C [11]: 0.26% | viability, T/C [12]: 0.29% | viability, T/C [13]: 103% | viability, T/C [14]: 91.5% | viability, T/C [15]: 69.2% | viability, T/C [16]: 5.67% | viability, T/C [17]: 0.22% | viability, T/C [18]: 0.27% | viability, T/C [19]: 109% | viability, T/C [20]: 92.7% | viability, T/C [21]: 65% | viability, T/C [22]: 3.85% | viability, T/C [23]: 0.2% | viability, T/C [24]: 0.27% | viability, T/C [25]: 112% | viability, T/C [26]: 93.2% | viability, T/C [27]: 85% | viability, T/C [28]: 3.59% | viability, T/C [29]: 0.21% | viability, T/C [30]: 0.25% | viability, T/C [31]: 100% | viability, T/C [32]: 90.1% | viability, T/C [33]: 82.3% | viability, T/C [34]: 5.14% | viability, T/C [35]: 0.2% | viability, T/C [36]: 0.24% | viability, T/C [37]: 115% | viability, T/C [38]: 85.8% | viability, T/C [39]: 71% | viability, T/C [40]: 3.61% | viability, T/C [41]: 0.22% | viability, T/C [42]: 0.26%

SMILES: COc1cc(C2c3cc4c(cc3C(OC3OC5COC(C)OC5C(O)C3O)C3COC(=O)C23)OCO4)cc(OC)c1O (stereo not given) + CN(C)c1ccc(Nc2c3ccc(NC(=O)CCN4CCCC4)cc3nc3cc(NC(=O)CCN4CCCC4)ccc23)cc1
IC50 [1]: > 10 µM | IC50 [2]: > 10 µM | IC50 [3]: > 10 µM | IC50 [4]: > 10 µM | IC50 [5]: > 10 µM | IC50 [6]: > 10 µM | viability, T/C [7]: 117% | viability, T/C [8]: 102% | viability, T/C [9]: 115% | viability, T/C [10]: 88.3% | viability, T/C [11]: 79.4% | viability, T/C [12]: 88.7% | viability, T/C [13]: 116% | viability, T/C [14]: 105% | viability, T/C [15]: 92.1% | viability, T/C [16]: 92.6% | viability, T/C [17]: 101% | viability, T/C [18]: 87.1% | viability, T/C [19]: 104% | viability, T/C [20]: 107% | viability, T/C [21]: 93.6% | viability, T/C [22]: 88.2% | viability, T/C [23]: 87.2% | viability, T/C [24]: 76.8% | viability, T/C [25]: 105% | viability, T/C [26]: 107% | viability, T/C [27]: 123% | viability, T/C [28]: 93.5% | viability, T/C [29]: 87.2% | viability, T/C [30]: 95.2% | viability, T/C [31]: 102% | viability, T/C [32]: 108% | viability, T/C [33]: 118% | viability, T/C [34]: 81.2% | viability, T/C [35]: 81.3% | viability, T/C [36]: 81.3% | viability, T/C [37]: 89.2% | viability, T/C [38]: 105% | viability, T/C [39]: 101% | viability, T/C [40]: 107% | viability, T/C [41]: 98% | viability, T/C [42]: 81.8%

More lines, main results first:

IC50 (curve of compound): > 0.316 µM
SMILES: Cn1ncnc1[C@H]1c2n[nH]c(=O)c3cc(F)cc(c23)N[C@@H]1c1ccc(F)cc1
viability, T/C (compound 0.000999 µM): 105% (2×) and 104% | viability, T/C (compound 0.00316 µM): 103% and 101% and 89.8% | viability, T/C (compound 0.00999 µM): 92.7% and 94.7% and 116% | viability, T/C (compound 0.0316 µM): 107% and 106% and 84.5% | viability, T/C (compound 0.0999 µM): 88.5% and 94.8% and 95.9% | viability, T/C (compound 0.316 µM): 125% and 105% and 92.4%

IC50 (curve of compound): > 10 µM
SMILES: O=c1[nH]cc(F)c(=O)[nH]1
viability, T/C (compound 0.0316 µM): 117% and 81.7% and 100% | viability, T/C (compound 0.1 µM): 110% and 105% and 96.5% | viability, T/C (compound 0.316 µM): 114% and 113% and 103% | viability, T/C (compound 1 µM): 103% and 86.2% and 122% | viability, T/C (compound 3.16 µM): 114% and 113% and 83.2% | viability, T/C (compound 10 µM): 103% and 85.3% and 87.8%

IC50 (curve of compound): 8.53 µM and 9.96 µM and 9.31 µM
SMILES: COc1ccc([C@@H](O)c2cc(-c3ncnc4cc(N5CCOCC5)ccc34)c(F)cc2Cl)nn1
viability, T/C (compound 0.0316 µM): 119% and 95% and 106% | viability, T/C (compound 0.1 µM): 103% and 97.4% and 85.3% | viability, T/C (compound 0.316 µM): 121% and 93.8% and 102% | viability, T/C (compound 1 µM): 89.3% and 96.7% and 82.5% | viability, T/C (compound 3.16 µM): 90.7% and 87.1% and 84.1% | viability, T/C (compound 10 µM): 43.1% and 49.8% and 47%
